Test system: 855422-203-R-J1-PDC complex spheroid viability
Test: Anticancer human tumor 855422-203-R-J1-PDC patient-derived bladder carcinoma cell line growth inhibition [POLQ]
Settings: for IC50: curve of first compound; for viability, T/C: stronger effect = lower value; active means viability on the fitted dose curve at most 10% of control; inactive means the rest
Outline: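 Growth inhibition in 3D: complex spheroids (tumor PDC, HUVEC, MSC) treated with POLQ inhibitor combinations; where Cmax unknown, highest tested concentration 10 microM, except SN-38 at 1 microM.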

[1] = second compound 0.0316 µM, first compound 0.0316 µM
[2] = second compound 0.0316 µM, first compound 0.1 µM
[3] = second compound 0.0316 µM, first compound 0.316 µM
[4] = second compound 0.0316 µM, first compound 1 µM
[5] = second compound 0.0316 µM, first compound 3.16 µM
[6] = second compound 0.0316 µM, first compound 10 µM
[7] = second compound 0.1 µM, first compound 0.0316 µM
[8] = second compound 0.1 µM, first compound 0.1 µM
[9] = second compound 0.1 µM, first compound 0.316 µM
[10] = second compound 0.1 µM, first compound 1 µM
[11] = second compound 0.1 µM, first compound 3.16 µM
[12] = second compound 0.1 µM, first compound 10 µM
[13] = second compound 0.316 µM, first compound 0.0316 µM
[14] = second compound 0.316 µM, first compound 0.1 µM
[15] = second compound 0.316 µM, first compound 0.316 µM
[16] = second compound 0.316 µM, first compound 1 µM
[17] = second compound 0.316 µM, first compound 3.16 µM
[18] = second compound 0.316 µM, first compound 10 µM
[19] = second compound 1 µM, first compound 0.0316 µM
[20] = second compound 1 µM, first compound 0.1 µM
[21] = second compound 1 µM, first compound 0.316 µM
[22] = second compound 1 µM, first compound 1 µM
[23] = second compound 1 µM, first compound 3.16 µM
[24] = second compound 1 µM, first compound 10 µM
[25] = second compound 3.16 µM, first compound 0.0316 µM
[26] = second compound 3.16 µM, first compound 0.1 µM
[27] = second compound 3.16 µM, first compound 0.316 µM
[28] = second compound 3.16 µM, first compound 1 µM
[29] = second compound 3.16 µM, first compound 3.16 µM
[30] = second compound 3.16 µM, first compound 10 µM
[31] = second compound 10 µM, first compound 0.0316 µM
[32] = second compound 10 µM, first compound 0.1 µM
[33] = second compound 10 µM, first compound 0.316 µM
[34] = second compound 10 µM, first compound 1 µM
[35] = second compound 10 µM, first compound 3.16 µM
[36] = second compound 10 µM, first compound 10 µM
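Further: spheroids exposed to compounds for seven days before readout.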

CC1COCCN1c1cc(C2(O)CC3CCC(C2)O3)c2cnn(-c3ccn[nH]3)c2n1 (centres undefined) + Nc1ccc(C#CCN(C(=O)Cc2ncc(C(F)(F)F)cc2C(F)(F)F)c2ccc(F)cc2)nn1
active: viability, T/C [11] 11.2% | viability, T/C [12] 5.82% | viability, T/C [22] 10.9% | viability, T/C [23] 10.2% | viability, T/C [24] 5.09% | viability, T/C [28] 14.6% | viability, T/C [29] 9.39% | viability, T/C [30] 5.42% | viability, T/C [34] 11.1% | viability, T/C [35] 9.46% | viability, T/C [36] 4.88%
170 nM: IC50 (second compound 1 µM)
inactive: viability, T/C [1] 111% | viability, T/C [2] 105% | viability, T/C [3] 23.2% | viability, T/C [4] 12.7% | viability, T/C [5] 11.1% | viability, T/C [6] 7.13% | viability, T/C [7] 139% | viability, T/C [8] 84% | viability, T/C [9] 24.7% | viability, T/C [10] 12% | viability, T/C [13] 117% | viability, T/C [14] 78.9% | viability, T/C [15] 18.5% | viability, T/C [16] 13.2% | viability, T/C [17] 12% | viability, T/C [18] 5.73% | viability, T/C [19] 104% | viability, T/C [20] 72.7% | viability, T/C [21] 23.1% | viability, T/C [25] 107% | viability, T/C [26] 69% | viability, T/C [27] 12.6% | viability, T/C [31] 151% | viability, T/C [32] 48.6% | viability, T/C [33] 17%
174 nM: IC50 (second compound 0.316 µM)
217 nM: IC50 (second compound 0.0316 µM)
147 nM: IC50 (second compound 3.16 µM)
98.9 nM: IC50 (second compound 10 µM)
194 nM: IC50 (second compound 0.1 µM)

O=C(Nc1ccc(O)c(NS(=O)(=O)c2ccc(F)cc2)c1)c1ccc(-c2ccccc2)cc1 + Nc1ccc(C#CCN(C(=O)Cc2ncc(C(F)(F)F)cc2C(F)(F)F)c2ccc(F)cc2)nn1
> 10000 nM: IC50 (second compound 0.0316 µM) | IC50 (second compound 0.1 µM) | IC50 (second compound 0.316 µM) | IC50 (second compound 1 µM) | IC50 (second compound 3.16 µM) | IC50 (second compound 10 µM)
inactive: viability, T/C [1] 93.4% | viability, T/C [2] 119% | viability, T/C [3] 108% | viability, T/C [4] 88.1% | viability, T/C [5] 105% | viability, T/C [6] 77.5% | viability, T/C [7] 95.5% | viability, T/C [8] 105% | viability, T/C [9] 94.5% | viability, T/C [10] 103% | viability, T/C [11] 117% | viability, T/C [12] 63.8% | viability, T/C [13] 91.3% | viability, T/C [14] 114% | viability, T/C [15] 102% | viability, T/C [16] 99.2% | viability, T/C [17] 106% | viability, T/C [18] 77.4% | viability, T/C [19] 92.8% | viability, T/C [20] 92.8% | viability, T/C [21] 95.5% | viability, T/C [22] 95.2% | viability, T/C [23] 112% | viability, T/C [24] 73.6% | viability, T/C [25] 93.6% | viability, T/C [26] 94.2% | viability, T/C [27] 91.3% | viability, T/C [28] 96.3% | viability, T/C [29] 93.7% | viability, T/C [30] 62.2% | viability, T/C [31] 92% | viability, T/C [32] 90.1% | viability, T/C [33] 89.2% | viability, T/C [34] 88.7% | viability, T/C [35] 95.1% | viability, T/C [36] 51.5%
